Source: ChEMBL document CHEMBL4308888, “Discovery of novel pyruvate dehydrogenase kinases inhibitors by screening of an in-house small molecule library for anti-lung cancer therapeutics” (Bioorg Med Chem Lett, 2019)
Activity calls are given as the source filed them. The rule behind the calls is not given here.

Assays:
[1] = biological target: T1, [Pyruvate dehydrogenase (acetyl-transferring)] kinase isozyme 1, mitochondrial (Homo sapiens, UniProt Q15118); experiment: Inhibition of PDK1 (unknown origin) using PDH E1 as substrate measured after 30 mins by kinase-glo assay
T1 sequence (Q15118 whole entry): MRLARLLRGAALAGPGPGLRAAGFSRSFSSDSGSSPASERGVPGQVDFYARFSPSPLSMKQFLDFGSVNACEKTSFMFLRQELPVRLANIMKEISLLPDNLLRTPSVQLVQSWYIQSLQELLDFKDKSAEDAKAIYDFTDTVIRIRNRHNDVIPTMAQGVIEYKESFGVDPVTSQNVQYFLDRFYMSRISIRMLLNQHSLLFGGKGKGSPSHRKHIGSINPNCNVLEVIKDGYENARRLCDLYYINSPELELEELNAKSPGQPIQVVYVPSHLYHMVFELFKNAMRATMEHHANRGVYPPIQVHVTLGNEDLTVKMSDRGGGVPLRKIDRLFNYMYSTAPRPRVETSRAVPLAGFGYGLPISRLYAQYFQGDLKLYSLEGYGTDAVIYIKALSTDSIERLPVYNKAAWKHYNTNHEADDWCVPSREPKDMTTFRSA

[2] = biological target: T1, [Pyruvate dehydrogenase (acetyl-transferring)] kinase isozyme 1, mitochondrial; experiment: Potency index, ratio of DCA EC50 to test compound EC50 for inhibition of PDK1 (unknown origin)
MRC5 = experiment: Cytotoxicity against human MRC5 cells assessed as reduction in cell viability up to 40 uM after 72 hrs by MTT assay; assay type: cell-based; settings: mrc5, 72 h
NCI-H1975 [3] = experiment: Antiproliferative activity against human NCI-H1975 cells assessed as reduction in cell viability at 10 uM after 72 hrs by MTT assay; assay type: functional, cell-based
[4] = biological target: T2, Pyruvate dehydrogenase kinase (Homo sapiens) (UniProt Q15119+Q15120+Q16654+Q15118); experiment: Inhibition of PDK in human NCI-H1975 cells assessed as reduction in phosphorylated S293 PDC E1 level by ELISA; assay type: cell-based
[5] = biological target: [Pyruvate dehydrogenase (acetyl-transferring)] kinase isozyme 3, mitochondrial (Homo sapiens, UniProt Q15120); experiment: Binding affinity to SUMO-fused/His-tagged PDK3 (unknown origin) expressed in Escherichia coli by isothermal calorimetric titration analysis
[Pyruvate dehydrogenase (acetyl-transferring)] kinase isozyme 3, mitochondrial, sequence (Q15120 whole entry, the tested form may be a part): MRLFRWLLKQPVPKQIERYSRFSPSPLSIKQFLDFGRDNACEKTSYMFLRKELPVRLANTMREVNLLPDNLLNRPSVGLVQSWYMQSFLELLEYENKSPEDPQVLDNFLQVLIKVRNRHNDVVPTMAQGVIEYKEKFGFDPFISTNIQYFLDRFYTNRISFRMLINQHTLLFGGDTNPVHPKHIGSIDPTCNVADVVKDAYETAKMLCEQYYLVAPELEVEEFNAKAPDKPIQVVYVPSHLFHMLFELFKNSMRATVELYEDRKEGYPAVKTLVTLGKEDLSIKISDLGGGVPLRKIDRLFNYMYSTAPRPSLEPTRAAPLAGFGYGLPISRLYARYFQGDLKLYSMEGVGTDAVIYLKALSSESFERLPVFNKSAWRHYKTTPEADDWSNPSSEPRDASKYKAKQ

NCI-H1650 = experiment: Antiproliferative activity against human NCI-H1650 cells assessed as reduction in cell viability after 72 hrs by MTT assay; assay type: functional, cell-based; settings: NCI-H1650, 72 h
[6] = biological target: [Pyruvate dehydrogenase (acetyl-transferring)] kinase isozyme 4, mitochondrial (Homo sapiens, UniProt Q16654); experiment: Binding affinity to SUMO-fused/His-tagged PDK4 (unknown origin) expressed in Escherichia coli by isothermal calorimetric titration analysis
[Pyruvate dehydrogenase (acetyl-transferring)] kinase isozyme 4, mitochondrial, sequence (Q16654 whole entry, the tested form may be a part): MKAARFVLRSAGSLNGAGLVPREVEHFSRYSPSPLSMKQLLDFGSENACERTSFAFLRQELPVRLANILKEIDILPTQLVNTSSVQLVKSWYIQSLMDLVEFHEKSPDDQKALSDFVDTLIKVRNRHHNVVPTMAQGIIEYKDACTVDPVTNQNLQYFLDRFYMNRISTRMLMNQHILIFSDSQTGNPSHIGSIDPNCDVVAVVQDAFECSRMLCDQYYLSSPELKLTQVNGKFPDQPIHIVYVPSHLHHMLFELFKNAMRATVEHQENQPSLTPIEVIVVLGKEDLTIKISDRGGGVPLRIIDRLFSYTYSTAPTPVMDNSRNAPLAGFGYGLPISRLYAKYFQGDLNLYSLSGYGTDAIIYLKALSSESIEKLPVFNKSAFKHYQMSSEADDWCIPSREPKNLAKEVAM

[7] = biological target: T2, Pyruvate dehydrogenase kinase (Homo sapiens); experiment: Inhibition of PDK in human NCI-H1975 cells assessed as reduction in phosphorylated S293 PDC E1 level by Western blot analysis; assay type: cell-based
A549 = experiment: cells; settings: Homo sapiens, A549, 72 h
Description: Antiproliferative activity against human A549 cells assessed as reduction in cell viability after 72 hrs by MTT assay

[8] = biological target: T1, [Pyruvate dehydrogenase (acetyl-transferring)] kinase isozyme 1, mitochondrial; experiment: Inhibition of PDK1 (unknown origin) at 10 uM using PDH E1 as substrate measured after 30 mins by kinase-glo assay relative to control
[9] = biological target: T1, [Pyruvate dehydrogenase (acetyl-transferring)] kinase isozyme 1, mitochondrial; experiment: Binding affinity to SUMO-fused/His-tagged PDK1 (unknown origin) expressed in Escherichia coli by isothermal calorimetric titration analysis
[10] = biological target: T2, Pyruvate dehydrogenase kinase (Homo sapiens); experiment: Inhibition of PDK in human NCI-H1975 cells assessed as reduction in phosphorylated S293 PDC E1 level at 10 uM by ELISA; assay type: cell-based
[11] = biological target: [Pyruvate dehydrogenase (acetyl-transferring)] kinase isozyme 2, mitochondrial (Homo sapiens, UniProt Q15119); experiment: Binding affinity to SUMO-fused/His-tagged PDK2 (unknown origin) expressed in Escherichia coli by isothermal calorimetric titration analysis
NCI-H1975 [12] = experiment: Antiproliferative activity against human NCI-H1975 cells assessed as reduction in cell viability at 20 mM after 72 hrs by MTT assay; assay type: functional, cell-based
[13] = biological target: T1, [Pyruvate dehydrogenase (acetyl-transferring)] kinase isozyme 1, mitochondrial; settings: 10 mM
Description: Inhibition of PDK1 (unknown origin) at 10 mM using PDH E1 as substrate measured after 30 mins by kinase-glo assay relative to control

[14] = biological target: T2, Pyruvate dehydrogenase kinase (Homo sapiens); experiment: Inhibition of PDK in human NCI-H1975 cells assessed as switch of pyruvate metabolism from lactate production to oxidative phosphorylation by measuring increase in ROS production at 1 to 10 uM measured after 4 hrs by DCFH-DA dye based assay; assay type: cell-based
NCI-H1975 [15] = experiment: Antiproliferative activity against human NCI-H1975 cells assessed as reduction in cell viability after 72 hrs by MTT assay; assay type: functional, cell-based; settings: NCI-H1975, 72 h
[16] = biological target: T2, Pyruvate dehydrogenase kinase (Homo sapiens); experiment: Inhibition of PDK in human NCI-H1975 cells assessed as switch of pyruvate metabolism from lactate production to oxidative phosphorylation by measuring increase in oxygen consumption rate measured after 2 hrs; assay type: cell-based
[17] = biological target: T2, Pyruvate dehydrogenase kinase (Homo sapiens); experiment: Inhibition of PDK in human NCI-H1975 cells assessed as switch of pyruvate metabolism from lactate production to oxidative phosphorylation by measuring decrease in lactate production at 1 to 10 uM measured after 4 hrs; assay type: cell-based

| SMILES | EC50 [1] [µM] | Ratio EC50 [2] | inhibition [4] | Kd [5] [µM] | Kd [6] [µM] | inhibition [7] | IC50 (A549) [µM] | inhibition [8] [%] | Kd [9] [µM] | inhibition [10] | Kd [11] [µM] | inhibition [14] | IC50 (NCI-H1975 [15]) [µM] | inhibition [16] | inhibition [17] | Activity (MRC5) | Activity (NCI-H1975 [3]) | IC50 (NCI-H1650) [µM] | Activity (NCI-H1975 [12]) | inhibition [13] [%] |
| --- | --- | --- | --- | --- | --- | --- | --- | --- | --- | --- | --- | --- | --- | --- | --- | --- | --- | --- | --- | --- |
| O=C([O-])C(Cl)Cl.[Na+] [SODIUM DICHLOROACETATE] | – | – | – | – | – | – | – | – | – | – | – | – | – | – | – | – | – | 16300 | Active | 64.2 |
| CC(C)=CCN1CCN(Cc2c(C)n(C)n(-c3ccccc3)c2=O)C[C@@H]1CCO | 4.64 | > 1000 | – | 8.9 | – | – | – | 86.9 | 10.5 | Active | 15.9 | – | – | – | – | – | – | – | – | – |
| O=C(c1ccccc1)C(Cl)Cl | – | – | – | – | – | – | 4.7 | – | – | – | – | – | – | – | – | – | Active | 7.9 | – | – |
| OCCn1nc(C2CCOCC2)nc1[C@@H]1CCCCN1Cc1ccccc1 | 0.42 | > 1000 | Dose-dependent effect | 2.1 | 7.9 | Dose-dependent effect | 5.9 | 93.7 | 0.89 | Active | 3.7 | Active | 3.32 | Dose-dependent effect | Active | Non-Toxic | Active | 7.6 | – | – |

Continued, in another order:

| EC50 [1] [µM] | Ratio EC50 [2] | inhibition [4] | Kd [5] [µM] | Kd [6] [µM] | inhibition [7] | IC50 (A549) [µM] | inhibition [8] [%] | Kd [9] [µM] | inhibition [10] | Kd [11] [µM] | inhibition [14] | IC50 (NCI-H1975 [15]) [µM] | inhibition [16] | inhibition [17] | SMILES | Activity (MRC5) | Activity (NCI-H1975 [3]) | IC50 (NCI-H1650) [µM] | Activity (NCI-H1975 [12]) | inhibition [13] [%] |
| --- | --- | --- | --- | --- | --- | --- | --- | --- | --- | --- | --- | --- | --- | --- | --- | --- | --- | --- | --- | --- |
| 0.5 | > 1000 | Dose-dependent effect | 4.7 | 2.6 | Dose-dependent effect | 17.8 | 95.6 | 1.1 | Active | 2 | – | – | – | – | CN(Cc1cnc2ccccn12)C(=O)c1cc(COc2ccc3c(c2)OCO3)[nH]n1 | Non-Toxic | Active | 15.7 | – | – |
| 1.99 | > 1000 | – | 7.8 | 10.7 | – | – | 89.6 | 5.8 | Active | 2.9 | – | – | – | – | CCCCN(Cc1ccncc1)C(=O)c1cc(-c2ccccc2O)n[nH]1 | – | – | – | – | – |
